Measurements taken from DBAASP.
Values after ≈ are worked out from the molar mass of the structure shown. Blank lines part the entries; values can stand above or below the molecule they belong to.

Key:
Assay in all cases: ≥ marks a high value that may be exact or a test limit, other limits are often not marked, values filed in µg/mL are converted to µM
[1] = test system: Bacillus subtilis MTCC 121
[2] = test system: Escherichia coli ATCC 11775
[3] = test system: Staphylococcus epidermidis MTCC 435
[4] = test system: Staphylococcus saprophyticus MTCC 6155
[5] = test system: Salmonella enterica subsp. enterica serovar Typhi Vi+
[6] = test system: Klebsiella pneumoniae ATCC 13883
[7] = test system: Escherichia coli ML-35p
[8] = test system: Escherichia coli ATCC 35218
[9] = test system: Klebsiella pneumoniae ATCC 700603
[10] = test system: Pseudomonas aeruginosa ATCC 27853
[11] = test system: Micrococcus luteus MTCC 166
[12] = test system: Salmonella enterica subsp. enterica serovar Typhimurium ATCC 14028
[13] = test system: Salmonella enterica subsp. enterica serovar Abony NCTC 6017
[14] = test system: Staphylococcus aureus ATCC 33592
[15] = test system: Escherichia coli DH5alpha
[16] = test system: Pseudomonas aeruginosa NBRC 13275
[17] = test system: Staphylococcus aureus NBRC 13276
[18] = test system: Staphylococcus aureus ATCC 29213
[19] = test system: Escherichia coli ATCC 25922
[20] = test system: Pseudomonas aeruginosa 21328
[21] = test system: Pseudomonas aeruginosa CICC 10419
[22] = test system: Pseudomonas aeruginosa CICC 11421
[23] = test system: Pseudomonas aeruginosa CICC 11411
[24] = test system: Pseudomonas aeruginosa CICC 11431
[25] = test system: Pseudomonas aeruginosa 25349
[26] = test system: Pseudomonas aeruginosa CICC 21630
[27] = test system: Pseudomonas aeruginosa CICC 21625
[28] = test system: Staphylococcus epidermidis
[29] = test system: Bacillus subtilis
[30] = test system: Pseudomonas fluorescens
[31] = test system: Vibrio parahaemolyticus
[32] = test system: Vibrio alginolyticus
[33] = test system: Escherichia coli
[34] = test system: Staphylococcus aureus
[35] = test system: Aeromonas hydrophila
[36] = test system: Corynebacterium glutamicum
[37] = test system: Cryptococcus neoformans
[38] = test system: Bacillus cereus
[39] = test system: Candida albicans
[40] = test system: Pseudomonas aeruginosa
[41] = test system: Shigella flexneri
[42] = test system: Salmonella enterica subsp. enterica serovar Typhimurium DT104
[43] = test system: Staphylococcus aureus NCTC 8325-4
[44] = test system: Cronobacter sakazakii DSM 4485
[45] = test system: Escherichia coli NCIMB 11843
[46] = test system: Cronobacter sakazakii DPC 6440
[47] = test system: Staphylococcus aureus Newman
[48] = test system: Staphylococcus aureus NCTC 7428
[49] = test system: Salmonella enterica subsp. enterica serovar Typhimurium LT2
[50] = test system: Staphylococcus aureus SA113
[51] = test system: Staphylococcus aureus RF122
[52] = test system: Escherichia coli O111
[53] = test system: Pseudomonas fluorescens NCIMB 9046
[54] = test system: Klebsiella pneumoniae NCIMB 13218
[55] = test system: Cronobacter muytjensii ATCC 51329
[56] = test system: Escherichia coli O157:H7
[57] = test system: Cronobacter sakazakii ATCC BAA-894
[58] = test system: Staphylococcus aureus RN4220

SMILES: CC(=O)N[C@@H](CCCCN)C(=O)N[C@@H](Cc1ccccc1)C(=O)N[C@@H](CC(C)C)C(=O)N[C@@H](Cc1cnc[nH]1)C(=O)N[C@@H](CO)C(=O)N[C@@H](C)C(=O)N[C@@H](CCCCN)C(=O)N[C@@H](CCCCN)C(=O)N[C@@H](Cc1ccccc1)C(N)=O [KFLHSAKKF]
- MIC [15]: ≥ 200 µM
- MIC [16]: ≥ 200 µM
- MIC [17]: ≥ 400 µM

SMILES: CC(C)C[C@H](NC(=O)[C@H](CCCN=C(N)N)NC(=O)[C@H](CCCN=C(N)N)NC(=O)[C@H](CC(C)C)NC(=O)[C@H](Cc1c[nH]c2ccccc12)NC(=O)[C@H](CCCN=C(N)N)NC(=O)[C@H](CCCN=C(N)N)NC(=O)[C@H](CCCN=C(N)N)NC(=O)[C@H](CC(C)C)NC(=O)[C@H](CCCN=C(N)N)NC(=O)[C@H](CCCN=C(N)N)NC(=O)[C@@H](N)CC(C)C)C(=O)N[C@@H](CCCN=C(N)N)C(=O)N[C@@H](CCCN=C(N)N)C(=O)N[C@@H](CCCN=C(N)N)C(N)=O [LRRLRRRWLRRLRRR]
- MIC [18]: 28.8 µM (≈ 64 µg/mL)
- MIC [19]: > 57.7 µM
- MIC [20]: ≥ 57.7 µM
- MIC [21]: ≥ 115 µM
- MIC [22]: ≥ 115 µM
- MIC [23]: ≥ 57.7 µM
- MIC [24]: 28.8 µM (≈ 64 µg/mL)
- MIC [25]: 20.4 µM (≈ 45.2 µg/mL)
- MIC [10]: 14.4 µM (≈ 32 µg/mL)
- MIC [26]: 14.4 µM (≈ 32 µg/mL)
- MIC [27]: 28.8 µM (≈ 64 µg/mL)

The next lines start with results.

- MIC [1]: 3 µM (≈ 5.56 µg/mL)
- MIC [2]: 4 µM (≈ 7.41 µg/mL)
- MIC [3]: 4 µM (≈ 7.41 µg/mL)
- MIC [4]: 3 µM (≈ 5.56 µg/mL)
- MIC [5]: 2 µM (≈ 3.7 µg/mL)
- MIC [6]: 3 µM (≈ 5.56 µg/mL)
- MIC [7]: 4 µM (≈ 7.41 µg/mL)
- MIC [8]: 5 µM (≈ 9.26 µg/mL)
- MIC [9]: 5 µM (≈ 9.26 µg/mL)
- MIC [10]: 4 µM (≈ 7.41 µg/mL)
- MIC [11]: 2.5 µM (≈ 4.63 µg/mL)
- MIC [12]: 7 µM (≈ 13 µg/mL)
- MIC [13]: 7 µM (≈ 13 µg/mL)
- MIC [14]: 3 µM (≈ 5.56 µg/mL)
SMILES: CC[C@H](C)[C@H](N)C(=O)N[C@@H](CC(C)C)C(=O)N1CCC[C@H]1C(=O)N[C@@H](Cc1c[nH]c2ccccc12)C(=O)N[C@@H](CCCCN)C(=O)N[C@@H](Cc1c[nH]c2ccccc12)C(=O)N[C@@H](CCCCN)C(=O)N[C@@H](Cc1c[nH]c2ccccc12)C(=O)N[C@H](C(=O)N1CCC[C@H]1C(=O)N[C@@H](Cc1c[nH]c2ccccc12)C(=O)N[C@@H](CCCN=C(N)N)C(=O)N[C@@H](CCCN=C(N)N)C(N)=O)[C@@H](C)O [ILPWKWKWTPWRR]

- MIC [28]: ≥ 50 µM
- MIC [29]: 8.84 µM (≈ 27 µg/mL)
- MIC [30]: 17.7 µM (≈ 54 µg/mL)
- MIC [32]: ≥ 50 µM
- MIC [33]: > 50 µM
- MIC [34]: > 50 µM
- MIC [35]: ≥ 50 µM
- MIC [36]: 8.84 µM (≈ 27 µg/mL)
- MIC [37]: ≥ 50 µM
- MIC [38]: ≥ 50 µM
- MIC [39]: > 50 µM
- MIC [40]: 35.4 µM (≈ 108 µg/mL)
- MIC [41]: ≥ 50 µM
SMILES: CC(C)C[C@H](NC(=O)[C@H](CO)NC(=O)[C@H](CC(C)C)NC(=O)[C@H](Cc1cnc[nH]1)NC(=O)[C@H](CO)NC(=O)[C@@H](N)CCC(N)=O)C(=O)N[C@H]1CSSC[C@@H](C(=O)N[C@@H](CCCCN)C(=O)N[C@@H](Cc2ccccc2)C(=O)O)NC(=O)[C@@H]2CSSC[C@@H]3NC(=O)[C@H](CSSC[C@H](NC(=O)[C@H](CC(N)=O)NC3=O)C(=O)N[C@H]3CSSC[C@H](NC(=O)CNC(=O)[C@H](CCCCN)NC(=O)[C@H](Cc4ccc(O)cc4)NC(=O)[C@H](CCCN=C(N)N)NC(=O)[C@H](CC(N)=O)NC3=O)C(=O)NCC(=O)N[C@@H](Cc3ccccc3)C(=O)N2)NC(=O)[C@H](Cc2c[nH]c3ccccc23)NC(=O)[C@H](CCCN=C(N)N)NC1=O [QSHLSLCRWCCNCCNRYKGCGFCCKF]
- MIC [31]: ≥ 50 µM

- MIC [42]: ≥ 2060 µM
- MIC [43]: ≥ 1250 µM
- MIC [44]: ≥ 625 µM
- MIC [45]: ≥ 1250 µM
- MIC [46]: ≥ 1250 µM
- MIC [47]: ≥ 1250 µM
- MIC [48]: ≥ 2060 µM
- MIC [49]: ≥ 1250 µM
- MIC [50]: ≥ 1250 µM
- MIC [51]: ≥ 1250 µM
- MIC [52]: ≥ 2060 µM
- MIC [53]: ≥ 1250 µM
- MIC [54]: ≥ 1250 µM
- MIC [55]: ≥ 625 µM
- MIC [10]: 64 µM (≈ 62.1 µg/mL)
- MIC [56]: ≥ 2060 µM
- MIC [57]: ≥ 625 µM
- MIC [58]: ≥ 1250 µM
SMILES: CC(C)C[C@H](NC(=O)[C@H](CC(C)C)NC(=O)[C@H](CC(N)=O)NC(=O)[C@H](CCC(=O)O)NC(=O)[C@H](CC(N)=O)NC(=O)[C@H](CC(C)C)NC(=O)[C@@H](N)C(C)C)C(=O)N[C@@H](CCCN=C(N)N)C(=O)O [VLNENLLR]
